In PubChem BioAssay AID330 (DTP/NCI, 2004):
“And” between values parts separate entries of the source, which are not always exact repeats. Identical values can stand only once. Toxic doses and inconclusive results are not listed. Rule for the calls: active = survival T/C of 150% or more; inactive = T/C below 125% in these data.

Test system: P388 leukemia ip, CD2F1 mice, survival T/C
Experiment: NCI In Vivo Anticancer Drug Screen. Data for tumor model P388 Leukemia (intraperitoneal) in CD2F1 (CDF1) mice
Conditions: endpoint: median survival time, higher = longer survival
Outline: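 Mice carrying the transplanted tumor received test compound or vehicle. Survival was recorded in each group, and the value is the treated-group measurement divided by that of the vehicle-treated control group.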

[1] = dose: 100.0 mg/kg/injection, schedule: Q04DX003 (ip), vehicle: saline with Tween-80
[2] = dose: 200.0 mg/kg/injection, schedule: Q04DX003 (ip), vehicle: saline with Tween-80
[3] = dose: 400.0 mg/kg/injection, schedule: Q04DX003 (ip), vehicle: saline with Tween-80
[4] = dose: 60.0 mg/kg/injection, schedule: Q01DX005 (ip), vehicle: saline with Tween-80
[5] = dose: 120.0 mg/kg/injection, schedule: Q01DX005 (ip), vehicle: saline with Tween-80
[6] = dose: 240.0 mg/kg/injection, schedule: Q01DX005 (ip), vehicle: saline with Tween-80
[7] = dose: 6.25 mg/kg/injection, schedule: Q01DX001 (ip), vehicle: saline with Tween-80
[8] = dose: 12.5 mg/kg/injection, schedule: Q01DX001 (ip), vehicle: saline with Tween-80
[9] = dose: 25.0 mg/kg/injection, schedule: Q01DX001 (ip), vehicle: saline with Tween-80
[10] = dose: 50.0 mg/kg/injection, schedule: Q01DX009 (ip), vehicle: saline with Tween-80
[11] = dose: 50.0 mg/kg/injection, schedule: Q04DX003 (ip), vehicle: saline with Tween-80
[12] = dose: 60.0 mg/kg/injection, schedule: Q01DX005 (ip), vehicle: Klucel (hydroxypropylcellulose) (HPC)
[13] = dose: 120.0 mg/kg/injection, schedule: Q01DX005 (ip), vehicle: Klucel (hydroxypropylcellulose) (HPC)
[14] = dose: 240.0 mg/kg/injection, schedule: Q01DX005 (ip), vehicle: Klucel (hydroxypropylcellulose) (HPC)
[15] = dose: 50.0 mg/kg/injection, schedule: Q01DX005 (ip), vehicle: saline with Tween-80
[16] = dose: 100.0 mg/kg/injection, schedule: Q01DX005 (ip), vehicle: saline with Tween-80
[17] = dose: 200.0 mg/kg/injection, schedule: Q01DX005 (ip), vehicle: saline with Tween-80

Measured: T/C

Nc1cc2c3c(cccc3c1)C(=O)N2
inactive: dose: 100.0 mg/kg/injection, schedule: Q01DX001 (ip), vehicle: saline with Tween-80 106 % of control | dose: 200.0 mg/kg/injection, schedule: Q01DX001 (ip), vehicle: saline with Tween-80 106 % of control

CSC(=S)N(C)N
inactive: [1] 111 % of control | [2] 105 % of control | [3] 100 % of control

Nc1cc(C(=O)O)cc(Cl)n1
inactive: dose: 3.12 mg/kg/injection, schedule: Q01DX009 (ip), vehicle: saline 108 % of control | dose: 6.25 mg/kg/injection, schedule: Q01DX009 (ip), vehicle: saline 101 % of control | dose: 12.5 mg/kg/injection, schedule: Q01DX009 (ip), vehicle: saline 107 % of control | dose: 25.0 mg/kg/injection, schedule: Q01DX009 (ip), vehicle: saline 111 % of control

COc1nc2c(ccn2C2OCC(OC(C)=O)C(OC(C)=O)C2OC(C)=O)c(=O)n1C (configuration not stated)
inactive: [4] 100 % of control | [5] 97 % of control | [6] 100 % of control

CC(=O)Nc1cc2nc[nH]c2cn1
inactive: dose: 100.0 mg/kg/injection, schedule: Q04DX002 (ip), vehicle: saline 99 % of control | dose: 200.0 mg/kg/injection, schedule: Q04DX002 (ip), vehicle: saline 106 % of control | dose: 400.0 mg/kg/injection, schedule: Q04DX002 (ip), vehicle: saline 106 % of control

O=C(O)c1ccc([N+](=O)[O-])cc1O.O=C(O)c1ccc([N+](=O)[O-])cc1O.[Cu]
inactive: [7] 100 % of control | [8] 103 % of control | [9] 97 % of control

CC(C)C[C@H]1C(=O)N2CCC[C@H]2[C@]2(O)O[C@](NC(=O)[C@@H]3C=C4c5cccc6[nH]c(Br)c(c56)C[C@H]4N(C)C3)(C(C)C)C(=O)N12
inactive: [10] 100 % of control | dose: 100.0 mg/kg/injection, schedule: Q01DX009 (ip), vehicle: saline with Tween-80 100 % of control | dose: 200.0 mg/kg/injection, schedule: Q01DX009 (ip), vehicle: saline with Tween-80 100 % of control

CCN(CC)C1=NS(=O)(=O)c2ccccc2C(c2ccccc2)=C1C
inactive: dose: 25.0 mg/kg/injection, schedule: Q04DX003 (ip), vehicle: Klucel (hydroxypropylcellulose) (HPC) 99 % of control | dose: 50.0 mg/kg/injection, schedule: Q04DX003 (ip), vehicle: Klucel (hydroxypropylcellulose) (HPC) 99 % of control | dose: 100.0 mg/kg/injection, schedule: Q04DX003 (ip), vehicle: Klucel (hydroxypropylcellulose) (HPC) 100 % of control and 95 % of control | dose: 400.0 mg/kg/injection, schedule: Q04DX003 (ip), vehicle: Klucel (hydroxypropylcellulose) (HPC) 87 % of control

CCCCCCC(Cn1ccnc1)c1ccccc1Cl (configuration not stated)
inactive: dose: 25.0 mg/kg/injection, schedule: Q04DX003 (ip), vehicle: saline with Tween-80 100 % of control | [11] 98 % of control | [1] 106 % of control

Cc1ccc(S(=O)(=O)C2C(C)(C)C2(Sc2ccccc2)[Si](C)(C)C)cc1 (configuration not stated)
inactive: [12] 102 % of control | [13] 106 % of control | [14] 92 % of control

CC1([N+](=O)[O-])C(=O)C2(N3CCOCC3)CCCC2C1c1ccccc1 (configuration not stated)
inactive: [12] 99 % of control | [13] 96 % of control | [14] 90 % of control

CCCCN(CCCC)/N=N\N(CCCC)CCCC
inactive: dose: 12.5 mg/kg/injection, schedule: Q01DX005 (ip), vehicle: saline with Tween-80 104 % of control and 93 % of control | dose: 25.0 mg/kg/injection, schedule: Q01DX005 (ip), vehicle: saline with Tween-80 104 % of control and 90 % of control | [15] 107 % of control and 93 % of control and 94 % of control | [16] 98 % of control and 100 % of control and 97 % of control | [17] 105 % of control

CCc1cccc(CC)c1N1C(=O)CSCC1=O
inactive: dose: 50.0 mg/kg/injection, schedule: Q01DX009 (ip), vehicle: saline 99 % of control | dose: 100.0 mg/kg/injection, schedule: Q01DX009 (ip), vehicle: saline 93 % of control | dose: 200.0 mg/kg/injection, schedule: Q01DX009 (ip), vehicle: saline 100 % of control

Cc1ccc(S(=O)(=O)CC(=O)CC(=O)C(N)=O)cc1
inactive: [4] 109 % of control | [5] 108 % of control | [6] 104 % of control

CN(C)P(=S)(N(C)C)N1CCOCC1
inactive: [11] 104 % of control | [1] 88 % of control | [2] 96 % of control

Nc1ccc(S(=O)(=O)Nc2ccccc2O)cc1
inactive: dose: 3.12 mg/kg/injection, schedule: Q01DX001 (ip), vehicle: saline with Tween-80 99 % of control | [7] 106 % of control | [8] 97 % of control | [9] 94 % of control | dose: 50.0 mg/kg/injection, schedule: Q01DX001 (ip), vehicle: saline with Tween-80 100 % of control

C/C=C1\CN2CCC34c5ccccc5N5C(C6C7CC8N(CCC89c8cccc(O)c8N(C(C)=O)C69)C/C7=C\C)OCC(C1CC23)C54 (configuration not stated)
inactive: dose: 11.25 mg/kg/injection, schedule: Q01DX009 (ip), vehicle: saline with Tween-80 106 % of control | dose: 22.5 mg/kg/injection, schedule: Q01DX009 (ip), vehicle: saline with Tween-80 105 % of control | dose: 45.0 mg/kg/injection, schedule: Q01DX009 (ip), vehicle: saline with Tween-80 106 % of control | dose: 90.0 mg/kg/injection, schedule: Q01DX009 (ip), vehicle: saline with Tween-80 104 % of control

Cn1c(C(=O)O)cc(=O)cc1C(=O)O
inactive: dose: 6.25 mg/kg/injection, schedule: Q01DX009 (ip), vehicle: saline with Tween-80 100 % of control | dose: 12.5 mg/kg/injection, schedule: Q01DX009 (ip), vehicle: saline with Tween-80 101 % of control | dose: 25.0 mg/kg/injection, schedule: Q01DX009 (ip), vehicle: saline with Tween-80 95 % of control | [10] 100 % of control

CC(=O)[O-].CC(=O)[O-].O=C(N/N=C/c1ccccc1[OH2+])c1ccncc1.[Zn+2]
inactive: [12] 100 % of control | [13] 100 % of control | [14] 99 % of control

O=C(NC1C=Nc2ccc([N+](=O)[O-])cc2NC1=O)c1ccc(Cl)cc1 (configuration not stated)
inactive: [12] 91 % of control | [13] 93 % of control | [14] 92 % of control

C=CCN(NC(=O)c1ccccc1)C(=O)c1ccccc1
inactive: dose: 100.0 mg/kg/injection, schedule: Q04DX003 (ip), vehicle: saline 105 % of control | dose: 200.0 mg/kg/injection, schedule: Q04DX003 (ip), vehicle: saline 100 % of control | dose: 400.0 mg/kg/injection, schedule: Q04DX003 (ip), vehicle: saline 110 % of control

CC1(CC(C)(C)c2ccccc2)OCCO1
inactive: dose: 25.0 mg/kg/injection, schedule: Q01DX009 (ip), vehicle: water 96 % of control | dose: 50.0 mg/kg/injection, schedule: Q01DX009 (ip), vehicle: water 91 % of control | dose: 100.0 mg/kg/injection, schedule: Q01DX009 (ip), vehicle: water 102 % of control | dose: 200.0 mg/kg/injection, schedule: Q01DX009 (ip), vehicle: water 93 % of control | dose: 400.0 mg/kg/injection, schedule: Q01DX009 (ip), vehicle: water 104 % of control

COc1ccc(C(=S)SCCCC(=O)O)cc1
inactive: dose: 50.0 mg/kg/injection, schedule: Q01DX009 (ip), vehicle: Klucel (hydroxypropylcellulose) (HPC) 102 % of control | dose: 100.0 mg/kg/injection, schedule: Q01DX009 (ip), vehicle: Klucel (hydroxypropylcellulose) (HPC) 98 % of control | dose: 200.0 mg/kg/injection, schedule: Q01DX009 (ip), vehicle: Klucel (hydroxypropylcellulose) (HPC) 92 % of control

CO/C=C(/C#N)S(=O)(=O)/C(C#N)=C/OC
inactive: [15] 100 % of control | [16] 112 % of control | [17] 104 % of control

C[N+](C)(C)CCC[N+]1(C)CC2CCCCC2C1 (configuration not stated)
inactive: dose: 50.0 mg/kg/injection, schedule: Q01DX005 (ip), vehicle: saline 107 % of control | dose: 100.0 mg/kg/injection, schedule: Q01DX005 (ip), vehicle: saline 98 % of control | dose: 200.0 mg/kg/injection, schedule: Q01DX005 (ip), vehicle: saline 101 % of control

CCCCOC(=O)C(CC)c1ccccc1 (configuration not stated)
inactive: [1] 114 % of control | [2] 114 % of control | [3] 112 % of control
